# Reference: patent US9023805B2, “Increasing cancer patient survival time by administration of dithio-containing compounds” (BioNumerik Pharmaceuticals, Inc., priority 2010, dated 2015)
# Entries after “also recorded” stand apart in the source; their conditions may differ.
# Legend:
# [1] = tested on: coupled thioredoxin (TX)/thioredoxin reductase (TXR) system; assay: NADPH oxidation, thioredoxin reductase + thioredoxin; format: biochemical, bovine; conditions: for NADPH Oxidation, Thioredoxin Reductase + Thioredoxin: Disulfide 0.5 mM, minimum of triplicate assays
# Protocol: (§1) The activity of TXR and TX was determined by following NADPH oxidation at 340 nm according to the previously reported method. See, Luthman, M., and Holmgren, A. Rat liver thioredoxin and thioredoxin reductase: purification and characterization. Biochemistry 21:6628-6633 (1982). A typical assay mixture contained TR buffer (50 mM potassium phosphate, pH 7.0, 1 mM EDTA), […] NADPH, 1.6 μg bovine TX, and one or more of the following: 4.8 μM TXR, 86 μM insulin, and one of the disulfides described herein. All disulfides were added to reactions as 10× solutions in TR buffer. The total volume of each reaction was 0.1 mL. Reactions were initiated by the addition of TX and were incubated at 25° C. for 40 min. The activity was calculated using a 4 min. linear portion of each reaction. Enzyme assays were carried out using either a Molecular Devices SpectraMaxPlus UV plate reader or a Varian Cary 100 UV-visible Spectrophotometer.
# Data was then collected and plotted in Microsoft Excel. Error calculations, and graphical representations were performed in Microsoft Excel and Kaleidograph (ver. 3.5). Nonlinear data was graphically rendered using Kaleidograph. ANOVA and other statistical analyses were performed using SAS (ver. 8.2). Unless otherwise noted, significance level was set at 0.05, and error bars represent actual experimental standard deviation.
# [2] = target: T1, glutathione reductase (GR) (Homo sapiens, UniProt P00390); assay: NADPH oxidation, GR; format: biochemical
# T1 sequence (P00390 44-522): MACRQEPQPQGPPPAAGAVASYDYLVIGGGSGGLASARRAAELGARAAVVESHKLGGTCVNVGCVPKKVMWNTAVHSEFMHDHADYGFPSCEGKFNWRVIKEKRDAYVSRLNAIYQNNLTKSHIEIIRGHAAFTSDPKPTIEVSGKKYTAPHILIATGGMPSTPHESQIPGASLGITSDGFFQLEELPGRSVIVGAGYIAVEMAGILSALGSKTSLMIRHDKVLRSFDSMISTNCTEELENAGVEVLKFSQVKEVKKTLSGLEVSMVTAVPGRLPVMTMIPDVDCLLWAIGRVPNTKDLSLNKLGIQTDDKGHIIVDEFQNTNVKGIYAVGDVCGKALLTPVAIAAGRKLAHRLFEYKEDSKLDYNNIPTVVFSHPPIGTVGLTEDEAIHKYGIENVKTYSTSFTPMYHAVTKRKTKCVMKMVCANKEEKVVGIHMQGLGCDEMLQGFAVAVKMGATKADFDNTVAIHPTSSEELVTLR
# Protocol: (§2) The Formula (I) compound was utilized at a concentration of 0.5 mM.
# [3] = target: T2, coupled glutaredoxin (GRX)/glutathione (GSH)/glutathione reductase (GR) system (Homo sapiens, UniProt P35754); assay: NADPH oxidation, GR + GRX + GSH; format: biochemical; conditions: in the presence of reduced glutathione and glutathione reductase
# T2 sequence (P35754 2-106 limits assumed): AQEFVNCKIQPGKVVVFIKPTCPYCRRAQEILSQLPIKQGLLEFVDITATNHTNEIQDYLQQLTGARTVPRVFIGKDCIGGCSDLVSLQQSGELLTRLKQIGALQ
# Protocol: as §2
# [4] = target: T3, Glutathione-S-Transferase (GST) (Homo sapiens, UniProt P09488); assay: GST assay: conjugation of reduced glutathione to 1-chloro-2,4-dinitrobenzene (CDNB); format: biochemical; conditions: read-out: Percent Inhibition
# T3 construct: purchased
# T3 sequence (P09488 2-218 limits assumed): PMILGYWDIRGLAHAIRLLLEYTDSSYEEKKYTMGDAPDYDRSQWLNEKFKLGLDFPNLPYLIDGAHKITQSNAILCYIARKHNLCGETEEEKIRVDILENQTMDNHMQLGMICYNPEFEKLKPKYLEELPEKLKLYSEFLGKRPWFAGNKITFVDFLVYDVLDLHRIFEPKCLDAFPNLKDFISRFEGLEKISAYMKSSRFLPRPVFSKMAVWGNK
# Protocol: An in vitro assay for GST has been developed and reported. See, Meyer, D. J. and Ketterer, B., Purification of soluble human glutathione S-transferases. Methods Enzymol. 252:53-65 (1995). This assay monitors the conjugation of reduced glutathione to 1-chloro-2,4-dinitrobenzene (CDNB), as illustrated in Reaction Scheme II, below.
# Reduced thiol forms a conjugate with CDNB (extinction coefficient=9600 M^−1 cm^−1), which is detected at 340 nm. […] A typical 1 mL assay was set up by mixing 500 μl NaHPO4 buffer (200 mM, pH 6.5), 20 μL GSH (50 mM), 20 μL CDNB (50 mM), and 458 μL sterile water. Reactions were incubated at 20° C. in the cuvette holder of the spectrophotometer for approximately 5 min. prior to initiating the assay with the addition of enzyme (ml−1 isotype of GST; activity >100 U/mg). The enzyme stock purchased from the vendor was diluted 1:100 in 200 mM NaHPO4 buffer (pH 6.5), and 2 μL of the diluted enzyme was added to initiate the reaction. The final amount of enzyme added to the assay was typically 0.002 U. Assays were run at 20° C. in 1 mL quartz cuvettes (Hellma Scientific). Slopes were measured in the linear range of the assay (i.e., typically between 5 to 10 min.). […] Final reaction volumes were fixed at 1 mL by adjusting the amount of water added.
# a. […]
# Raw data was obtained on a Cary 100 spectrophotometer. […] No absorbance values were collected during the process of enzyme addition. […] It was during this time that reaction rates (i.e., slopes of change in absorbance with time) were measured using the Cary 100 software. […] Absorbance and time values during the end phase of the reaction were not used in slope calculations because the reaction was effectively over at this point as the reaction no longer followed the classical Michaelis-Menton model for enzyme kinetics. Completion of the reaction on the Cary software could be detected visually by overlaying a straight line beginning at the addition of enzyme and extending past the end phase of the assay curve. […]
# [5] = tested on: patients with advanced non-small cell lung carcinoma (NSCLC), including the adenocarcinoma sub-type; assay: Japan Phase III Clinical Trial; format: in vivo, human
# Protocol: (§3) Darbepoetin alfa (200 μg; subcutaneous administration) was administered on day one of the chemotherapy cycle and pegfilgrastim (6 mg subcutaneous administration) was administered on day two of the chemotherapy cycle if the patient's hemoglobin levels were ≦11 g/dL. The aforementioned chemotherapy cycle was repeated every two weeks, for up to a total of six cycles.
# Patients admitted into the trial included those patients without previous treatment (excluding surgical treatment, administration of Picibanil into the serous membrane, irradiation of 30% or less hematopoietic bone, or oral chemotherapeutic agents within 3 months of entry in the trial).
# The Japan Phase III Clinical Trial was conducted as a double-blind study because peripheral neuropathy is diagnosed based on subjective symptoms evaluated through clinical interviews, lab tests, and the like. Accordingly, evaluations by both physicians and patients are highly important. […] A placebo was used as control since there is no established therapy or drug for preventing peripheral neuropathy. Because the severity of peripheral neuropathy is evaluated based on patient's reports (i.e., subjective symptoms), the Peripheral Neuropathy Questionnaire (PNQ©) was used in primary evaluation. CIPN-20 and NCI-CTC were used in secondary evaluation. The incidence and severity of adverse reactions, time to their onset, etc. and the like, were compared between patients treated with Tavocept™ and those given a placebo using the aforementioned methods.
# [6] = tested on: patients with advanced, Stage IIIB/IV, non-small cell lung carcinoma (NSCLC), including the adenocarcinoma sub-type; assay: U.S. Phase II NSCLC Clinical Trial; format: in vivo, human
# Protocol: as §3
# [7] = tested on: coupled thioredoxin (TX)/thioredoxin reductase (TXR) system; assay: TX/TXR catalyzed reduction of the insulin A-B chain disulfide; format: biochemical, bovine
# Protocol: as §1
# [8] = tested on: whole cells; assay: Whole cell mediated disulfide reduction; format: cell-based; conditions: mesna in combination with cisplatin
# [9] = Tavocept™ and chemotherapy vs chemotherapy and placebo
# [10] = Grade 3 and Grade 4 treatment-related adverse events, Tavocept™ arm versus non-Tavocept™ arm, FIG. 15
smiles,measurement,setting,value
NC(CSSCCS(=O)(=O)O)C(=O)O (centres unmarked) [BNP7766],substrate (alternative substrate inhibitor) for thioredoxin / the coupled thioredoxin/thioredoxin reductase/NADPH system,[1],substrates
same,"NADPH Oxidation, Thioredoxin Reductase + Thioredoxin",[1],14.4 ± 0.2 nmol/min/mL
NC(CCSSCCS(=O)(=O)O)C(=O)O (centres unmarked) [BNP7768],substrate (alternative substrate inhibitor) for thioredoxin / the coupled thioredoxin/thioredoxin reductase/NADPH system,[1],substrates
same,"NADPH Oxidation, Thioredoxin Reductase + Thioredoxin",[1],8.6 ± 0.06 nmol/min/mL
N[C@@H](CCC(=O)N[C@@H](CSSCCS(=O)(=O)O)C(=O)NCC(=O)O)C(=O)O [BNP7772],substrate for glutathione reductase,[2],alternative substrate inhibitor
same,substrate (alternative substrate inhibitor) for thioredoxin / the coupled thioredoxin/thioredoxin reductase/NADPH system,[1],substrates
same,"NADPH Oxidation, Thioredoxin Reductase + Thioredoxin",[1],14.1 ± 0.1 nmol/min/mL
NC(CCC(=O)NC(CSSCCS(=O)(=O)O)C(=O)O)C(=O)O (centres unmarked) [BNP7774],substrate (alternative substrate inhibitor) for thioredoxin / the coupled thioredoxin/thioredoxin reductase/NADPH system,[1],substrates
same,"NADPH Oxidation, Thioredoxin Reductase + Thioredoxin",[1],9.6 ± 0.2 nmol/min/mL
N[C@@H](CSSCCS(=O)(=O)O)C(=O)NCC(=O)O [BNP7776],substrate (alternative substrate inhibitor) for thioredoxin / the coupled thioredoxin/thioredoxin reductase/NADPH system,[1],substrates
same,"NADPH Oxidation, Thioredoxin Reductase + Thioredoxin",[1],15.8 ± 0.3 nmol/min/mL
"O=S(=O)([O-])CCSSCCS(=O)(=O)[O-].[Na+].[Na+] [Tavocept™, disodium 2,2′-dithio-bis-ethane sulfonate]",substrate-like / alternative substrate inhibitor activity with glutaredoxin (coupled GRX/GSH/GR system),[3],substrate-like activity
same,inhibition at 1100 µM,[4],5.6%
same,inhibition at 3300 µM,[4],39%
same,inhibition at 10000 µM,[4],66.4%
same,substrate for glutathione reductase,[2],not a substrate
same,chemotherapy-induced kidney damage,[5]; [9],medically-important reductions
same,chemotherapy-induced vomiting/emesis,[5]; [9],medically-important reductions
same,patients with Grade 3 (severe) decrease in red blood cell,"[5]; Tavocept™ arm, FIG. 7",1 patients
same,"Response Rate, as measured by physicians","[5]; Tavocept™ arm, FIG. 8 ""Doctor""",41.9%
same,reduction in severe (Grade D or E) peripheral neuropathy (PNQ),"[5]; paclitaxel/Tavocept™/cisplatin vs paclitaxel/saline placebo/cisplatin, FIG. 5, GEE P-Value 0.1565 (FIG. 6)",~50%
same,anorexia,"[5]; vs placebo regimen, p=0.0029",reductions
same,fatigue,"[5]; vs placebo regimen, p=0.0163",reductions
same,nausea/vomiting,"[5]; vs placebo regimen, p=0.0240",reductions
same,diarrhea,"[5]; vs placebo regimen, p=0.0859",reductions
same,insomnia,"[5]; vs placebo regimen, p=0.1108",reductions
same,constipation,"[5]; vs placebo regimen, p=0.1114",reductions
same,"hazard ratio, adenocarcinoma",[6]; FIG. 14,0.601
same,reduction in dehydration,[6]; [10],50%
same,reduction in hypomagnesaemia,[6]; [10],100%
same,reduction in nausea,[6]; [10],38.5%
same,reduction in vomiting,[6]; [10],71.5%
same,hazard ratio,"[6]; NSCLC, FIG. 12",0.750
same,"increase in patient survival, adenocarcinoma","[6]; Tavocept™ arm versus non-Tavocept™ arm, FIG. 14",6.54 month
same,"increase in patient survival, adenocarcinoma","[6]; Tavocept™ arm versus non-Tavocept™ arm, FIG. 14, listed as Tavocept",~6.5 month
same,inhibition of TX/TXR catalyzed reduction of the insulin A-B chain disulfide bond,[7],inhibits
same,Km,[7]; read-out: Km for inhibition of thioredoxin/thioredoxin reductase catalyzed reduction of the insulin A-B chain disulfide,3600 µM
same,oxidation of reduced thioredoxin to oxidized thioredoxin,[1],drives the oxidation
same,substrate (alternative substrate inhibitor) for thioredoxin / the coupled thioredoxin/thioredoxin reductase/NADPH system,[1],substrate; also recorded: most likely a substrate for TX
same,"NADPH Oxidation, Thioredoxin Reductase + Thioredoxin",[1],13.1 ± 0.2 nmol/min/mL
same,NADPH oxidation by TXR in the presence of TX,[1]; FIG. 17,concentration-dependent increase
same,Km,[1]; read-out: Km as substrate for the coupled thioredoxin/thioredoxin reductase system,72 µM
"O=S(=O)([O-])CCS.[Na+] [mesna, 2-mercapto ethane sulfonate sodium]",reduction of hydroxyethyldisulfide (GRX substrate) by whole cells,[8],enhanced
same,reduction of α-lipoic acid (TX/TXR substrate) by whole cells,[8],enhanced
